Assay results as given in patent EP4596574A1, “GLP-1/GCG/GIP TRIPLE-RECEPTOR AGONIST AND USE THEREOF” (Sunshine Lake Pharma Co., Ltd., priority 2022, dated 2024).
Starred links: 1 amine or outer side, 2 acyl side, 3 side chain; linkers in the order of their positions; H or OH if unused. Non-standard residues stand in square brackets, D forms with d. Residues, ends and D or L forms follow the SMILES beside them. Groups on a side chain read outwards from the residue. *: point of attachment. C18 diacid = O=C(O)CCCCCCCCCCCCCCCCC(=O)*; αMePhe(2-F) = C[C@](N)(Cc1ccccc1F)C(=O)O; γGlu = O=C(O)[C@H](CCC(=O)[*:2])N[*:1]; AEEA = NCCOCCOCC(=O)O; Aib = CC(C)(N)C(=O)O

Legend:
Type in all cases: cell-based
[1] = molecular target: T1, GLP-1R (Homo sapiens, UniProt P43220); test: In vitro cell activity, cAMP production in HEK293 cells expressing GLP-1R; details: HEK293-GLP-1R cells, cAMP; read-out: GLP-1R (EC50)
T1 construct: expressed in transfected cells; host or cells: HEK293 (HEK293-GLP-1R)
How it was run: (§1)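 Cells were plated at 4×10^5 cells/mL, and detection reagents (cAMP-d2, anti-cAMP cryptate, 1:1) were incubated 1 h at room temperature in the dark or overnight at 4 °C.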

[2] = molecular target: T2, GCGR (Homo sapiens, UniProt P47871); test: In vitro cell activity, cAMP production in HEK293 cells expressing GCGR; details: HEK293-GCGR cells, cAMP; read-out: GCGR (EC50)
T2 construct: expressed in transfected cells; host or cells: HEK293 (HEK293-GCGR)
How it was run: as §1

[3] = molecular target: T3, GIPR (Homo sapiens, UniProt P48546); test: In vitro cell activity, cAMP production in HEK293 cells expressing GIPR; details: HEK293-GIPR cells, cAMP; read-out: GIPR (EC50)
T3 construct: expressed in transfected cells; host or cells: HEK293 (HEK293-GIPR)
T3 sequence (P48546 22-466): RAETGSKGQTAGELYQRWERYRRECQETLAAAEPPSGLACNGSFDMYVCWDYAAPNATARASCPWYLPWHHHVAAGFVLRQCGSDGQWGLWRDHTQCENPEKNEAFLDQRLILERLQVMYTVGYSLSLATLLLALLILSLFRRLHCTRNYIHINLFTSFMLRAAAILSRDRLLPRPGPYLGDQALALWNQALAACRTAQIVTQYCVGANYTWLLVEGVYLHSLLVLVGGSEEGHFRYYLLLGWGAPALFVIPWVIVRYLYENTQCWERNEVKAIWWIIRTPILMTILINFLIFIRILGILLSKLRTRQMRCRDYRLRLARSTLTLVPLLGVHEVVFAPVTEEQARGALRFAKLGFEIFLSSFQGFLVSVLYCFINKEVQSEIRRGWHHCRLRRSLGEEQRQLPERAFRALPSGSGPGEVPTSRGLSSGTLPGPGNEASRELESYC
How it was run: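 cAMP accumulation is quantified by homogeneous TR-FRET (cAMP-d2 plus anti-cAMP cryptate) in GIPR-expressing HEK293 cells seeded from a 4×10^5 cells/mL suspension and treated with compound. The signal ratio is plotted against concentration and fitted to a four-parameter curve to give EC50.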

T1 sequence (P43220 24-463, species assumed): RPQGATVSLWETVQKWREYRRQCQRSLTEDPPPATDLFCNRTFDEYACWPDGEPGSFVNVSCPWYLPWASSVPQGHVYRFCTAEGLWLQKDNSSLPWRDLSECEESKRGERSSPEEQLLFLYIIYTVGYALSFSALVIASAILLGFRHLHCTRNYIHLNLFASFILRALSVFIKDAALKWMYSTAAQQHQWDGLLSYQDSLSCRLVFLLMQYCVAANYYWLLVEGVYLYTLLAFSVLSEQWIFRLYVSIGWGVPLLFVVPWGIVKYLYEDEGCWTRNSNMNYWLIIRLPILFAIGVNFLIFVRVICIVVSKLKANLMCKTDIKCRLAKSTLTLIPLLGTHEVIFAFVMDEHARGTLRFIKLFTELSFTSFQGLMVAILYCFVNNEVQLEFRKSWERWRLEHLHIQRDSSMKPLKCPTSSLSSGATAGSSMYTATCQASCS
T2 sequence (P47871 26-477, species assumed): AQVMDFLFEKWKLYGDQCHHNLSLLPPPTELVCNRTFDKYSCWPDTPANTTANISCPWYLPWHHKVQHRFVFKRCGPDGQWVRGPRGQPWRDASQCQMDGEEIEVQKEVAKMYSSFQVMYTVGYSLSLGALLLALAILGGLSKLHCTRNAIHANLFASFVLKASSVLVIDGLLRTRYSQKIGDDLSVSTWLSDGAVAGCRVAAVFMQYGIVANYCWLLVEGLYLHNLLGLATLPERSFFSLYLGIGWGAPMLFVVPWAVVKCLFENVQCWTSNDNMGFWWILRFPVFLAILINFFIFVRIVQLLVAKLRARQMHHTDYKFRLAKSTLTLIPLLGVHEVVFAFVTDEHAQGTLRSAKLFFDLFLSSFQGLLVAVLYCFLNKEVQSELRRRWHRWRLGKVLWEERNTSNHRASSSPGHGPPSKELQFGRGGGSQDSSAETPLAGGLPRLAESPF

SMILES	EC50 [1] [nM]	EC50 [2] [nM]	EC50 [3] [nM]
CC[C@H](C)[C@H](NC(=O)[C@H](Cc1ccccc1)NC(=O)[C@H](C)NC(=O)[C@H](CCC(N)=O)NC(=O)[C@H](CCC(N)=O)NC(=O)[C@H](C)NC(=O)[C@H](CCCCNC(=O)COCCOCCNC(=O)CC[C@H](NC(=O)CCCCCCCCCCCCCCCCC(=O)O)C(=O)O)NC(=O)[C@H](CCCNC(=N)N)NC(=O)[C@H](CC(=O)O)NC(=O)[C@H](CC(C)C)NC(=O)[C@H](CC(C)C)NC(=O)[C@@H](NC(=O)[C@H](CO)NC(=O)[C@H](Cc1ccc(O)cc1)NC(=O)[C@H](CC(=O)O)NC(=O)[C@H](CO)NC(=O)[C@@H](NC(=O)[C@](C)(Cc1ccccc1F)NC(=O)[C@@H](NC(=O)CNC(=O)[C@H](Cc1c[nH]cn1)NC(=O)C(C)(C)NC(=O)[C@@H](N)Cc1c[nH]cn1)[C@@H](C)O)[C@@H](C)O)[C@@H](C)CC)C(=O)N[C@@H](CCC(=O)O)C(=O)N[C@@H](Cc1ccc(O)cc1)C(=O)N[C@@H](CC(C)C)C(=O)N[C@@H](CC(C)C)C(=O)N[C@@H](C)C(=O)NCC(=O)NCC(=O)N1CCC[C@H]1C(=O)N[C@@H](CO)C(=O)N[C@@H](CO)C(=O)NCC(=O)N[C@@H](C)C(=O)N1CCC[C@H]1C(=O)N1CCC[C@H]1C(=O)N1CCC[C@H]1C(=O)N[C@@H](CO)C(=O)O [HEC-PT153]	0.0752	0.0126	0.0169
CC[C@H](C)[C@H](NC(=O)[C@H](CC(C)C)NC(=O)[C@H](Cc1c[nH]c2ccccc12)NC(=O)[C@H](CCC(=O)O)NC(=O)[C@@H](NC(=O)[C@H](Cc1ccccc1)NC(=O)[C@H](CC(=O)O)NC(=O)[C@H](CCC(N)=O)NC(=O)[C@H](CCC(N)=O)NC(=O)[C@H](C)NC(=O)[C@H](CCCCNC(=O)COCCOCCNC(=O)CC[C@H](NC(=O)CCCCCCCCCCCCCCCCCCC(=O)O)C(=O)O)NC(=O)[C@H](CCC(=O)O)NC(=O)[C@H](CC(=O)O)NC(=O)[C@H](CC(C)C)NC(=O)[C@H](CC(C)C)NC(=O)[C@@H](NC(=O)[C@H](CO)NC(=O)[C@H](Cc1ccc(O)cc1)NC(=O)[C@H](CC(=O)O)NC(=O)[C@H](CO)NC(=O)[C@@H](NC(=O)[C@](C)(Cc1ccccc1F)NC(=O)[C@@H](NC(=O)CNC(=O)[C@H](CCC(N)=O)NC(=O)C(C)(C)NC(=O)[C@@H](N)Cc1ccc(O)cc1)[C@@H](C)O)[C@@H](C)O)[C@@H](C)CC)[C@@H](C)CC)C(=O)N[C@@H](C)C(=O)NCC(=O)NCC(=O)N1CCC[C@H]1C(=O)N[C@@H](CO)C(=O)N[C@@H](CO)C(=O)NCC(=O)N[C@@H](C)C(=O)N1CCC[C@H]1C(=O)N1CCC[C@H]1C(=O)N1CCC[C@H]1C(=O)N[C@@H](CO)C(=O)O [HEC-PT69]	2.18	30.8	0.419
CC[C@H](C)[C@H](NC(=O)[C@H](CO)NC(=O)[C@H](Cc1ccc(O)cc1)NC(=O)[C@H](CC(=O)O)NC(=O)[C@H](CO)NC(=O)[C@@H](NC(=O)[C@](C)(Cc1ccccc1F)NC(=O)[C@@H](NC(=O)CNC(=O)[C@H](CCC(N)=O)NC(=O)C(C)(C)NC(=O)[C@@H](N)Cc1ccc(O)cc1)[C@@H](C)O)[C@@H](C)O)C(=O)N[C@@H](CC(C)C)C(=O)N[C@@H](CCCCNC(=O)COCCOCCNC(=O)CC[C@H](NC(=O)CCCCCCCCCCCCCCCCC(=O)O)C(=O)O)C(=O)N[C@@H](CC(=O)O)C(=O)N[C@@H](CCCNC(=N)N)C(=O)N[C@@H](CCCNC(=N)N)C(=O)N[C@@H](C)C(=O)N[C@@H](CCC(N)=O)C(=O)N[C@@H](CCC(N)=O)C(=O)N[C@@H](C)C(=O)N[C@@H](Cc1ccccc1)C(=O)N[C@H](C(=O)N[C@@H](CCC(=O)O)C(=O)N[C@@H](Cc1ccc(O)cc1)C(=O)N[C@@H](CC(C)C)C(=O)N[C@@H](CC(C)C)C(=O)N[C@@H](CCC(=O)O)C(=O)NCC(=O)NCC(=O)N1CCC[C@H]1C(=O)N[C@@H](CO)C(=O)N[C@@H](CO)C(=O)NCC(=O)N[C@@H](C)C(=O)N1CCC[C@H]1C(=O)N1CCC[C@H]1C(=O)N1CCC[C@H]1C(=O)N[C@@H](CO)C(=O)O)C(C)C [HEC-PT149] (H-Y[Aib]QGT[αMePhe(2-F)]TSDYSILK([AEEA-γGlu-C18 diacid])DRRAQQAFVEYLLEGGPSSGAPPPS-OH)	0.0868	0.138	0.264
CC[C@H](C)[C@H](NC(=O)[C@H](Cc1ccccc1)NC(=O)[C@H](C)NC(=O)[C@H](CCCCN)NC(=O)[C@H](CCC(N)=O)NC(=O)[C@H](CCCNC(=N)N)NC(=O)[C@H](CCCCNC(=O)COCCOCCNC(=O)CC[C@H](NC(=O)CCCCCCCCCCCCCCCCC(=O)O)C(=O)O)NC(=O)[C@H](CCC(=O)O)NC(=O)[C@H](CC(=O)O)NC(=O)[C@H](CC(C)C)NC(=O)[C@H](CC(C)C)NC(=O)[C@@H](NC(=O)[C@H](CO)NC(=O)[C@H](Cc1ccc(O)cc1)NC(=O)[C@H](CC(=O)O)NC(=O)[C@H](CO)NC(=O)[C@@H](NC(=O)[C@](C)(Cc1ccccc1F)NC(=O)[C@@H](NC(=O)CNC(=O)[C@H](Cc1c[nH]cn1)NC(=O)C(C)(C)NC(=O)[C@@H](N)Cc1ccc(O)cc1)[C@@H](C)O)[C@@H](C)O)[C@@H](C)CC)C(=O)N[C@@H](CCC(=O)O)C(=O)N[C@@H](Cc1ccc(O)cc1)C(=O)N[C@@H](CC(C)C)C(=O)N[C@@H](CC(C)C)C(=O)N[C@@H](C)C(=O)NCC(=O)NCC(=O)N1CCC[C@H]1C(=O)N[C@@H](CO)C(=O)N[C@@H](CO)C(=O)NCC(=O)N[C@@H](C)C(=O)N1CCC[C@H]1C(=O)N1CCC[C@H]1C(=O)N1CCC[C@H]1C(=O)N[C@@H](CO)C(N)=O [HEC-PT121]	0.275	0.89	0.0813
CC[C@H](C)[C@H](NC(=O)[C@H](Cc1ccccc1)NC(=O)[C@H](C)NC(=O)[C@H](CCC(N)=O)NC(=O)[C@H](CCC(N)=O)NC(=O)[C@H](CCCNC(=N)N)NC(=O)[C@H](CCCCNC(=O)COCCOCCNC(=O)CC[C@H](NC(=O)CCCCCCCCCCCCCCCCCCC(=O)O)C(=O)O)NC(=O)[C@H](CCCNC(=N)N)NC(=O)[C@H](CC(=O)O)NC(=O)[C@H](CC(C)C)NC(=O)[C@H](CC(C)C)NC(=O)[C@@H](NC(=O)[C@H](CO)NC(=O)[C@H](Cc1ccc(O)cc1)NC(=O)[C@H](CC(=O)O)NC(=O)[C@H](CO)NC(=O)[C@@H](NC(=O)[C@](C)(Cc1ccccc1F)NC(=O)[C@@H](NC(=O)CNC(=O)[C@H](CCC(N)=O)NC(=O)C(C)(C)NC(=O)[C@@H](N)Cc1ccc(O)cc1)[C@@H](C)O)[C@@H](C)O)[C@@H](C)CC)C(=O)N[C@@H](CCC(=O)O)C(=O)N[C@@H](Cc1ccc(O)cc1)C(=O)N[C@@H](CC(C)C)C(=O)N[C@@H](CC(C)C)C(=O)N[C@@H](C)C(=O)NCC(=O)NCC(=O)N1CCC[C@H]1C(=O)N[C@@H](CO)C(=O)N[C@@H](CO)C(=O)NCC(=O)N[C@@H](C)C(=O)N1CCC[C@H]1C(=O)N1CCC[C@H]1C(=O)N1CCC[C@H]1C(=O)N[C@@H](CO)C(=O)O [HEC-PT128]	0.38	0.128	0.0608
